Measurements published in PubChem BioAssay (NCI).
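Following 48 hours of exposure in 96-well plates, responses at five concentrations were used to interpolate endpoints linearly. Here, GI50 denotes the concentration required for 50% inhibition of growth. Definition used: TGI = concentration required for complete inhibition of growth.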

Experiments:
Experiment in all cases: NCI anticancer screen, dose series, 48 h
RPMI-8226 leukemia = system: RPMI-8226 leukemia
A498 renal = system: A498 renal
SN12C renal = system: SN12C renal
SR leukemia = system: SR leukemia
MDA-MB-435 = system: MDA-MB-435
NCI-H460 lung = system: NCI-H460 lung
TK-10 renal = system: TK-10 renal
M14 melanoma = system: M14 melanoma
HCT-15 colon = system: HCT-15 colon
HOP-62 NSCLC = system: HOP-62 NSCLC
UACC-62 melanoma = system: UACC-62 melanoma
EKVX NSCLC = system: EKVX NSCLC
ACHN renal = system: ACHN renal
HS 578T breast = system: HS 578T breast
HT29 colon = system: HT29 colon
MOLT-4 leukemia = system: MOLT-4 leukemia
CCRF-CEM leukemia = system: CCRF-CEM leukemia
PC-3 prostate = system: PC-3 prostate
SF-295 CNS = system: SF-295 CNS
MDA-MB-468 breast = system: MDA-MB-468 breast
MDA-MB-231 breast = system: MDA-MB-231 breast
SK-MEL-28 melanoma = system: SK-MEL-28 melanoma
SK-MEL-2 melanoma = system: SK-MEL-2 melanoma
SNB-75 CNS = system: SNB-75 CNS
HCT-116 colon = system: HCT-116 colon
A549 NSCLC = system: A549 NSCLC
OVCAR-5 ovarian = system: OVCAR-5 ovarian
T-47D breast = system: T-47D breast
NCI-H522 lung = system: NCI-H522 lung
HOP-92 NSCLC = system: HOP-92 NSCLC
OVCAR-3 ovarian = system: OVCAR-3 ovarian
MCF7 breast = system: MCF7 breast
SF-539 CNS = system: SF-539 CNS
UO-31 renal = system: UO-31 renal
UACC-257 melanoma = system: UACC-257 melanoma
LOX IMVI melanoma = system: LOX IMVI melanoma
SK-OV-3 ovarian = system: SK-OV-3 ovarian
IGROV1 ovarian = system: IGROV1 ovarian
SF-268 CNS = system: SF-268 CNS
U251 CNS = system: U251 CNS
K-562 leukemia = system: K-562 leukemia
COLO 205 colon = system: COLO 205 colon
KM12 colon = system: KM12 colon
RXF 393 renal = system: RXF 393 renal
786-0 renal = system: 786-0 renal
SK-MEL-5 melanoma = system: SK-MEL-5 melanoma
CAKI-1 renal = system: CAKI-1 renal
SW-620 colon = system: SW-620 colon
HL-60(TB) leukemia = system: HL-60(TB) leukemia
BT-549 breast = system: BT-549 breast
OVCAR-4 ovarian = system: OVCAR-4 ovarian
NCI-H23 lung = system: NCI-H23 lung
SNB-19 CNS = system: SNB-19 CNS
NCI/ADR-RES ovarian = system: NCI/ADR-RES ovarian
OVCAR-8 ovarian = system: OVCAR-8 ovarian
DU-145 prostate = system: DU-145 prostate
NCI-H226 lung = system: NCI-H226 lung
MALME-3M melanoma = system: MALME-3M melanoma
HCC-2998 colon = system: HCC-2998 colon

SMILES: NS(=O)(=O)c1ccc(Nc2nc(N/N=C/c3cc(Br)c(O)c(Br)c3)nc(Nc3ccccc3)n2)cc1
- GI50 (RPMI-8226 leukemia): 22.8 µM
- TGI (RPMI-8226 leukemia): 93.5 µM
- GI50 (A498 renal): 13.3 µM
- TGI (A498 renal): 36.6 µM
- GI50 (SN12C renal): 15.6 µM
- TGI (SN12C renal): 32.1 µM
- GI50 (SR leukemia): 15.9 µM
- TGI (SR leukemia): > 100 µM
- GI50 (MDA-MB-435): 17.8 µM
- TGI (MDA-MB-435): 40.6 µM
- GI50 (NCI-H460 lung): 19.6 µM
- TGI (NCI-H460 lung): 60.1 µM
- GI50 (TK-10 renal): 27.7 µM
- TGI (TK-10 renal): 87 µM
- GI50 (M14 melanoma): 18.8 µM
- TGI (M14 melanoma): 45.7 µM
- GI50 (HCT-15 colon): 32.3 µM
- TGI (HCT-15 colon): > 100 µM
- GI50 (HOP-62 NSCLC): 21.3 µM
- TGI (HOP-62 NSCLC): 58.9 µM
- GI50 (UACC-62 melanoma): 14.5 µM
- TGI (UACC-62 melanoma): 28.3 µM
- GI50 (EKVX NSCLC): 21.4 µM
- TGI (EKVX NSCLC): 69.2 µM
- GI50 (ACHN renal): 24.8 µM
- TGI (ACHN renal): 93.8 µM
- GI50 (HS 578T breast): 7.76 µM
- TGI (HS 578T breast): 81.3 µM
- GI50 (HT29 colon): 19.6 µM
- TGI (HT29 colon): 49.1 µM
- GI50 (MOLT-4 leukemia): 19.7 µM
- TGI (MOLT-4 leukemia): 52.3 µM
- GI50 (CCRF-CEM leukemia): 11.1 µM
- TGI (CCRF-CEM leukemia): 41.6 µM
- GI50 (PC-3 prostate): 19.5 µM
- TGI (PC-3 prostate): 55.2 µM
- GI50 (SF-295 CNS): 22.2 µM
- TGI (SF-295 CNS): 60.2 µM
- GI50 (MDA-MB-468 breast): 2.94 µM
- TGI (MDA-MB-468 breast): 15.5 µM
- GI50 (MDA-MB-231 breast): 17.2 µM
- TGI (MDA-MB-231 breast): 47.4 µM
- GI50 (SK-MEL-28 melanoma): 18.1 µM
- TGI (SK-MEL-28 melanoma): 40.6 µM
- GI50 (SK-MEL-2 melanoma): 15.7 µM
- TGI (SK-MEL-2 melanoma): 38.1 µM
- GI50 (SNB-75 CNS): 18.6 µM
- TGI (SNB-75 CNS): 61.7 µM
- GI50 (HCT-116 colon): 17.7 µM
- TGI (HCT-116 colon): 38.9 µM
- GI50 (A549 NSCLC): 21.8 µM
- TGI (A549 NSCLC): 67.5 µM
- GI50 (OVCAR-5 ovarian): 22.7 µM
- TGI (OVCAR-5 ovarian): 62.6 µM
- GI50 (T-47D breast): 7.39 µM
- TGI (T-47D breast): 27.3 µM
- GI50 (NCI-H522 lung): 16.8 µM
- TGI (NCI-H522 lung): 42.4 µM
- GI50 (HOP-92 NSCLC): 26.7 µM
- TGI (HOP-92 NSCLC): 81.2 µM
- GI50 (OVCAR-3 ovarian): 21.4 µM
- TGI (OVCAR-3 ovarian): 63.1 µM
- GI50 (MCF7 breast): 16.9 µM
- TGI (MCF7 breast): 45.4 µM
- GI50 (SF-539 CNS): 17.9 µM
- TGI (SF-539 CNS): 41.3 µM
- GI50 (UO-31 renal): 26.7 µM
- TGI (UO-31 renal): > 100 µM
- GI50 (UACC-257 melanoma): 20.6 µM
- TGI (UACC-257 melanoma): 47.9 µM
- GI50 (LOX IMVI melanoma): 15.8 µM
- TGI (LOX IMVI melanoma): 30.4 µM
- GI50 (SK-OV-3 ovarian): 21.3 µM
- TGI (SK-OV-3 ovarian): 61.9 µM
- GI50 (IGROV1 ovarian): 18.5 µM
- TGI (IGROV1 ovarian): 42.2 µM
- GI50 (SF-268 CNS): 19.9 µM
- TGI (SF-268 CNS): 58.6 µM
- GI50 (U251 CNS): 20 µM
- TGI (U251 CNS): 71 µM
- GI50 (K-562 leukemia): 23.4 µM
- TGI (K-562 leukemia): > 100 µM
- GI50 (COLO 205 colon): 16 µM
- TGI (COLO 205 colon): 29.8 µM
- GI50 (KM12 colon): 17.5 µM
- TGI (KM12 colon): 37.1 µM
- GI50 (RXF 393 renal): 14.7 µM
- TGI (RXF 393 renal): 32.8 µM
- GI50 (786-0 renal): 15.1 µM
- TGI (786-0 renal): 44.3 µM
- GI50 (SK-MEL-5 melanoma): 14.9 µM
- TGI (SK-MEL-5 melanoma): 28.6 µM
- GI50 (CAKI-1 renal): 24 µM
- TGI (CAKI-1 renal): 85.7 µM
- GI50 (SW-620 colon): 17.2 µM
- TGI (SW-620 colon): 42.4 µM
- GI50 (HL-60(TB) leukemia): 22 µM
- TGI (HL-60(TB) leukemia): 60.9 µM
- GI50 (BT-549 breast): 16.8 µM
- TGI (BT-549 breast): 42.7 µM
- GI50 (OVCAR-4 ovarian): 23.2 µM
- TGI (OVCAR-4 ovarian): 81.4 µM
- GI50 (NCI-H23 lung): 20.9 µM
- TGI (NCI-H23 lung): 50.1 µM
- GI50 (SNB-19 CNS): 14.2 µM
- TGI (SNB-19 CNS): 27.7 µM
- GI50 (NCI/ADR-RES ovarian): > 100 µM
- TGI (NCI/ADR-RES ovarian): > 100 µM
- GI50 (OVCAR-8 ovarian): 26.9 µM
- TGI (OVCAR-8 ovarian): > 100 µM
- GI50 (DU-145 prostate): 16.1 µM
- TGI (DU-145 prostate): 30.2 µM
- GI50 (NCI-H226 lung): 26.5 µM
- TGI (NCI-H226 lung): 98.2 µM
- GI50 (MALME-3M melanoma): 14.7 µM
- TGI (MALME-3M melanoma): 34.8 µM
- GI50 (HCC-2998 colon): 14.8 µM
- TGI (HCC-2998 colon): 29.2 µM
